Reference: patent US8623832B2, “Peptide compositions that bind TLR-4” (The Board of Regents of the University of Oklahoma, priority 2011, dated 2014)
Where no end group is shown, it is not given here.

What was measured:
JAWS II dendritic cells = assay: LPS-induced TNF-α release by JAWS II dendritic cells (ELISA); type: cell-based, mouse; conditions: for LPS-induced TNF-α, mean values: post-LPS model
Protocol: JAWS II dendritic cell culture: The JAWS II dendritic cell line is an immortalized cell line derived from bone marrow of C57BL/6 mice (ATCC, Manassas, Va.). The cells were maintained in Alpha-modified minimum essential medium (Sigma, St Louis, Mo.) supplemented with 20% fetal bovine serum (FBS), 4 mM L-glutamine, 100 U/ml penicillin, 100 μg/ml streptomycin, 50 μg/ml gentamicin (Invitrogen, Grand Island, N.Y.) and 5 ng/ml of recombinant murine granulocyte macrophage-colony stimulating factor (Peprotech, Rocky Hill, N.J.). (Awasthi et al., 2005). The culture medium was replaced with fresh medium every 48 h.
The JAWS II dendritic cells (1 million) were treated with SP-A peptides (1 or 10 μM) with or without E. coli derived LPS (75 ng/ml, highly purified, low protein, Calbiochem, CA). In order to observe the anti-inflammatory properties of the SP-A peptides, the cells were treated with peptides for 1 hour prior to addition of LPS (pre-LPS treatment) or after 4 hours incubation with LPS (Post-LPS treatment). The incubation was continued for a total period of 5 hours. Control cells were treated with vehicle, LPS (75 ng/ml), and/or SP-A peptides (1 and 10 μM) for a period of 5 hours. The cell-free supernatants were collected and stored at −80° C. for further analysis.
Cytokine (TNF-α) measurement: The TNF-α levels were measured in cell-free supernatants of JAWS II dendritic cells treated with LPS with or without SP-A peptides by enzyme linked immunosorbent assay (ELISA) as described earlier (Awasthi and Cox, 2003).

[1] = test system: dendritic (JAWS II) and intestinal epithelial cells (SW480); assay: Cell viability during the 5 hour TLR4 expression experiment; type: cell-based; conditions: within the 5 hours of the experiment
Protocol: SPA4 peptide (SEQ ID NO:3) inhibits the LPS-induced TLR4 expression in dendritic cells and SW480 intestinal (colonic) epithelial cells. […] Both of these cells constitutively express the TLR4 gene; the protein expression is low in dendritic cells under basal conditions. […] First, it was determined if the SPA4 peptide inhibits LPS-induced expression of TLR4 in these cells. […] After a total of 5 hours, TLR4 expression was studied by confocal microscopy.

[2] = test system: primary adult baboon lung DCs and fetal baboon lung DC-precursor cells; assay: Phagocytosis of pHrodo-labeled E. coli bioparticles by primary baboon lung DCs / fetal DC-precursor cells; type: cell-based
Protocol: Freshly collected lobe of the lung or whole lung samples of adult and fetal baboons were transported on ice in RPMI 1640 medium containing 2 mM glutamine, 1 mM HEPES, 10 μg/ml gentamicin, 100 U/ml penicillin, 100 μg/ml streptomycin and 10% FBS. After a mild mechanical disruption, the single cell suspension was seeded in a tissue culture flask (Nalge-Nunc International Corp, NY) at a density of 30-50×10^6 leukocytes/175 cm^2 flask in RPMI 1640 medium containing 2 mM glutamine, 1 mM HEPES, 10 μg/ml gentamicin, 100 U/ml penicillin, 100 μg/ml streptomycin and 10% FBS. The light-density DC-populations were harvested using OptiPrep cell-separation solution (density 1.32 g/ml, Accurate Chemicals, NY) (Awasthi and Cooper, 2006; Awasthi et al., 2009). The immunophenotype and basic characteristics of the lung DC-population isolated from fetal and adult baboons have been described earlier (Awasthi et al., 2009). Here, first the immunophenotype of KG-1-derived DCs and fetal baboon lung DC-precursors or adult baboon lung DCs were compared by flow cytometry. Briefly, cells were suspended in Dulbecco's phosphate buffered saline (DPBS) containing 1% FBS and 0.09% sodium azide and incubated with fluorochrome-conjugated antibodies to HLA-DP, DQ, DR, CD11c, CD40, CD80, CD86 (typical DC-markers) as described earlier.
After confirming that the fluorescence is of phagocytosed bioparticles, comprehensive experiments were performed in presence and absence of effector molecules (SP-A and TLR4-MD2 proteins). […] The fluorescence readings were taken at 550 nm excitation and 600 nm emission wavelengths using SpectraMax M2 spectrofluorometer (Molecular Devices, CA).
The phagocytosis index was calculated by subtracting the average fluorescence intensity of the reaction with bioparticles alone from the control (basal without any effector molecules) and experimental wells. Finally, the percent effect was calculated using the following formula: % effect=(Net experimental phagocytosis/Net basal phagocytosis)×100%

Substance | secretion of TNF-α, post-LPS model (JAWS II dendritic cells; peptide added after 4 hours LPS 75 ng/ml, both 1 and 10 μM) | LPS-induced TNF-α, mean values (JAWS II dendritic cells; 1 μM peptide) [pg/mL] | LPS-induced TNF-α, mean values (JAWS II dendritic cells; 10 μM peptide) [pg/mL] | viability of cells [1] | phagocytic uptake of E. coli ([2]; SP-A 2 μM, TLR4-MD2 0.3 μM) | phagocytic uptake of E. coli when SP-A and TLR4-MD2 proteins were added together ([2]; uptake remained increased versus basal)
GDFRYSDGTPVNYTNWYRGE [SPA4, GDFRYSDGT PVNYTNWYRGE] | inhibited the secretion of TNF-α | 6448 | 6101 | does not affect the viability of cells | – | –
SP-A: native surfactant protein-A purified from bronchioalveolar lavage fluid of a normal healthy adult baboon (MWLCPLALTLTLMAASGAACEVKDVCVGSPGIPGTPGSHGLPGRDGRDGVKGDPGPP; listed as Papio cynocephalus) | – | – | – | – | increased | no additive effect
